“And” between values parts separate entries of the source, which are not always exact repeats. Equal entries are not always repeated. Where two headings read alike, the source gives them in different places.
Columns and labels:
[1] = biological target: T1, eeAChE (AChE from electrophorus electricus) (Electrophorus electricus, UniProt O42275); assay: biochemical; type: biochemical; conditions: for fold enhancement of eeAChE inhibitory activity: 10 carbon linker compound compared to 6 carbon linker analogue (compounds 3 and 4); for IC50: Ellman's method, ATCI substrate, 30 °C
T1 construct: purchased Sigma-Aldrich (St. Louis, MO, USA)
T1 sequence (O42275 24-633): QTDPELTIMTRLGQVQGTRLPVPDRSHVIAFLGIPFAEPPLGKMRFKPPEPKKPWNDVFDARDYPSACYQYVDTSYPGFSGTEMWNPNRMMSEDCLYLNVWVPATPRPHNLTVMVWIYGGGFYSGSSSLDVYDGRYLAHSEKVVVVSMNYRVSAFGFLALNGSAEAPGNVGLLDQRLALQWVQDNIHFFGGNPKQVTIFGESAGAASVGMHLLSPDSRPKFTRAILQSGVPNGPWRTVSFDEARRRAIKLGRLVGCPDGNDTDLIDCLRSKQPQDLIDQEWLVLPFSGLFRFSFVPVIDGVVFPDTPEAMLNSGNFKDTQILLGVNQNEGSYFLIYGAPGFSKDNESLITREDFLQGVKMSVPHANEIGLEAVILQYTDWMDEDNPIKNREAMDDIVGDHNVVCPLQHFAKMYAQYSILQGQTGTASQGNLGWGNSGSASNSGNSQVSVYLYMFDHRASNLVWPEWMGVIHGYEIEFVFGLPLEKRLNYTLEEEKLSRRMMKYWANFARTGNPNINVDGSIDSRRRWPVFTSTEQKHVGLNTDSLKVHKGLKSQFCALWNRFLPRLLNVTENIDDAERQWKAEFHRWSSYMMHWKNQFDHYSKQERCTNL
Protocol: (§1) Acetylcholinesterase and butyrylcholinesterase inhibitory activities of the compounds under study were evaluated spectrophotometrically following Ellman’s method using AChE from electrophorus electricus (eeAChE) and BChE from equine serum (eqBChE). The lyophilized enzymes were dissolved in sodium phosphate buffer (0.25 M, pH 7.4) to make a stock solution of eeAChE (1000 U/mL) or eqBChE (25 U/mL). […] Briefly, in each well, 100 μL of phosphate buffer, 40 μL of DTNB, 20 μL of the tested compounds (100 µM solution dissolved in 0.1% DMSO and phosphate buffer) and 20 μL of cholinesterase solution were pre-incubated in a 96-well microplate for 5 min at 30 °C. […] The rate of the reaction before adding the enzyme was subtracted from that obtained after enzyme addition in order to correct for spontaneous hydrolysis of substrate.

[2] = biological target: T2, eqBChE (BChE from equine serum) (Equus caballus, UniProt P81908); assay: biochemical
T2 construct: BChE from equine serum (eqBChE); purchased Sigma-Aldrich (St. Louis, MO, USA); host or cells: equine serum
T2 sequence (P81908 whole entry): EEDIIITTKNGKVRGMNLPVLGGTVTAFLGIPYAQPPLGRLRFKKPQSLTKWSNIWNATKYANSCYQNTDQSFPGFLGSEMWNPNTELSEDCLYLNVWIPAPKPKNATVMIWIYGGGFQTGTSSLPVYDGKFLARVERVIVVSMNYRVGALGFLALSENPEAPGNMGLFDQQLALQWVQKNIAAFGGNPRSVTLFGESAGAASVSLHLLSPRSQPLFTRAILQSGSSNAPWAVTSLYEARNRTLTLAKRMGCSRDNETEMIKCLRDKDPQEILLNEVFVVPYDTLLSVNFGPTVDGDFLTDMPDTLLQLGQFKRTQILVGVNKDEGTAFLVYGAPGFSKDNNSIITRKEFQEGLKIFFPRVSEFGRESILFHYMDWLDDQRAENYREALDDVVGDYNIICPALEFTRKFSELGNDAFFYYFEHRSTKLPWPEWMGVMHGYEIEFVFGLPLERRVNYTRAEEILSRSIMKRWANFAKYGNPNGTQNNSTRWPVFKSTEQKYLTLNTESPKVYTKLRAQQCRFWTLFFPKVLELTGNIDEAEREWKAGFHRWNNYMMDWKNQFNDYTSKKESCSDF
Protocol: as §1

[3] = test system: differentiated SH-SY5Y cells; assay: Neuroprotection against iron(III), MTT reduction; type: cell-based, human; conditions: mean ± SD; for MTT reduction: 30 min pre-treatment, then iron(III) 1 mM 24 h; for MTT reduction, aggressor alone: iron(III) 1 mM, 24 h
Protocol: (§2) After 30 min of pre-treatment with Compounds 7 (10 and 50 µM) and 11 (10 µM), the cells were exposed to different aggressors, described above, for 24 h.
(§3) Figure 6 Evaluation of the protective effects of Compounds 7 (10 and 50 µM) and 11 (10 µM) in SH-SY5Y cells against glutamate (16 mM, A), iron(III) (1 mM, B) and Aβ42 (25 µM, C) as oxidative stress inducers. The cells were pre-treated with antioxidants for 30 min and exposed to the aggressors for 24 h. The data are expressed as the means of three independent experiments together with the standard deviation (Mean ± SD). Statistical comparisons were estimated using the nonparametric method of Kruskal–Wallis [one-way ANOVA on ranks] followed by Dunn’s post hoc test (A,B) and using the parametric method of one-way analysis of variance (ANOVA) followed by Dunnett’s multiple comparison test (C, F = 364.2) (Supplementary Table S2). In all cases, p values lower than 0.05 were considered significant (^## p < 0.05, ^#### p < 0.0001 vs. control data; ** p < 0.01, *** p < 0.001, **** p < 0.0001 vs. aggressor values).
(§4) Differentiated human neuroblastoma cells were routinely cultured into […] flasks and maintained in DMEM high glucose (4.5 g/L glucose), supplemented with 10% heat-inactivated FBS (v/v), 1% NEAA (v/v) and 1% penicillin/streptomycin (v/v). The cell cultures were maintained at 37 °C in a humidified 5% CO2–95% air atmosphere and passaged once a week by trypsinization (0.25% trypsin). Neuroblastoma SH-SY5Y cells were seeded onto 96 well plates at a density of 25,000 cells/cm^2 in cell culture medium with trans-retinoic acid (RA, final concentration of 10 µM) and incubated for three days at 37 °C in a humidified, 5% CO2–95% air atmosphere. Then, the medium was supplemented with 12-O-tetradecanoylphorbol-13-acetate (TPA, final concentration of 80 nM), and cells were incubated for three days. Stock solutions of RA (10 mM) and TPA (160 µM) were prepared in DMSO. To avoid phenotypic changes, the cells used for all experiments were taken between the 19th and 28th passages.
(§5) The neuroprotective efficacy of mitochondriotropic antioxidants 7 and 11 was evaluated in a cell-based assay against diverse oxidative stress inducers. Briefly, SH-SY5Y cells were pre-treated with Compounds 7 and 11 followed by incubation with the well-described aggressors that play a role in AD progression, namely Aβ-amyloid 1-42 (Aβ42), ferric nitrilotriacetate (FeNTA) and glutamic acid. Differentiated SH-SY5Y cells were pre-treated with the test compounds 7 (10 and 50 µM) and 11 (10 µM) for 30 min. Then, a culture medium containing Aβ42 (25 µM), iron(III) (1 mM) or glutamic acid (16 mM) was added, and cells were incubated for additional 24 h. A negative control (cells treated with culture medium containing DMSO 0.1%) and a positive control (cells treated with culture medium containing DMSO 0.1%, followed by treatment with aggressors) were also included. Cell viability was estimated using the MTT reduction assay, as described by Fernandes et al..

[4] = test system: differentiated SH-SY5Y cells; assay: Neuroprotection against glutamate, MTT reduction; type: cell-based, human; conditions: mean ± SD; for MTT reduction: 30 min pre-treatment, then glutamate 16 mM 24 h; for MTT reduction, aggressor alone: glutamate 16 mM, 24 h
Protocol: as §2, §3, §4, §5

[5] = test system: differentiated SH-SY5Y cells; assay: Neuroprotection against Aβ42, MTT reduction; type: cell-based, human; conditions: mean ± SD; for MTT reduction: 30 min pre-treatment, then Aβ42 25 µM 24 h; for MTT reduction, aggressor alone: Aβ42 25 µM, 24 h
Protocol: as §2, §3, §4, §5

[6] = Chemical stability observation; type: physicochemical
Text: Accordingly, these two compounds were selected for the study as protective agents against glutamate, iron(III) and Aβ42.

SH-SY5Y cells = test system: SH-SY5Y cells; set-up: method as in PMID 30784884; conditions: at 50 µM; cited from earlier work
[7] = read-out: IC50 eeAChE, mean (CI 95%)
[8] = Ellman's method, BTCI substrate, 30 °C, read-out: IC50 eqBChE, mean (CI 95%)

| Molecule | IC50 ([1]; IC50 eeAChE, mean (CI 95%)) | IC50 [2] | IC50 [1, 7] | SI: selectivity index = IC50 (eeAChE)/IC50 (eqBChE) [2] | IC50 [2, 8] | also measured |
| --- | --- | --- | --- | --- | --- | --- |
| O=C(Cc1cc(O)c(O)c(O)c1)NCCCCCCCCCC[P+](c1ccccc1)(c1ccccc1)c1ccccc1 [Compound 9] | 3350 nM | 530 nM |  |  |  | fold enhancement of eeAChE inhibitory activity [1]: 3 fold |
| O=C(/C=C/c1ccc(O)c(O)c1)NCCCCCCCCCC[P+](c1ccccc1)(c1ccccc1)c1ccccc1 [Compound 10] |  |  | 3590 nM | 23.9 | 150 nM | fold enhancement of eeAChE inhibitory activity [1]: 2 fold |
| O=C(/C=C/c1ccc(O)c(O)c1)NCCCCCC[P+](c1ccccc1)(c1ccccc1)c1ccccc1 [Compound 4] |  |  | 6320 nM | 52.7 | 120 nM |  |
| O=C(Cc1ccc(O)c(O)c1)NCCCCCC[P+](c1ccccc1)(c1ccccc1)c1ccccc1 [Compound 6] | 3880 nM | 930 nM |  | 4.2 |  |  |
| O=C(/C=C/c1cc(O)c(O)c(O)c1)NCCCCCCCCCC[P+](c1ccccc1)(c1ccccc1)c1ccccc1 [Compound 7] |  |  | 3390 nM | 30.8 | 110 nM | MTT reduction ([3]; compound 10 µM): 75.90 ± 5.25 % ctrl; MTT reduction ([3]; compound 50 µM): 80.22 ± 12.76 % ctrl and 80.2 % ctrl; MTT reduction ([4]; compound 10 µM): 84.24 ± 5.32 % ctrl; MTT reduction ([4]; compound 50 µM): 81.90 ± 2.81 % ctrl and 81.9 % ctrl; MTT reduction ([5]; compound 10 µM): 72.55 ± 2.67 % ctrl; MTT reduction ([5]; compound 50 µM): 68.81 ± 0.70 % ctrl and 68.1 % ctrl |
| O=C(CCc1ccc(O)c(O)c1)NCCCCCC[P+](c1ccccc1)(c1ccccc1)c1ccccc1 [Compound 5] | 1080 nM | 2520 nM |  | 0.4 |  | chemical stability [6]: showed chemical instability |
| O=C(CCc1cc(O)c(O)c(O)c1)NCCCCCC[P+](c1ccccc1)(c1ccccc1)c1ccccc1 [Compound 2] | 6760 nM | 3160 nM |  | 2.1 |  |  |
| N[C@@H](CCC(=O)O)C(=O)O [Glutamate, L-glutamic acid, reference compound] |  |  |  |  |  | MTT reduction, aggressor alone [4]: 72.68 ± 2.81 % ctrl; MTT reduction, aggressor alone ([4]; listed as glutamate): about 72.7 % ctrl |
| O=C(Cc1ccc(O)c(O)c1)NCCCCCCCCCC[P+](c1ccccc1)(c1ccccc1)c1ccccc1 [Compound 12] | 2440 nM | 240 nM |  | 10.2 |  |  |
| O=C(CCc1cc(O)c(O)c(O)c1)NCCCCCCCCCC[P+](c1ccccc1)(c1ccccc1)c1ccccc1 [Compound 8] | 5750 nM | 800 nM |  | 7.2 |  |  |
| Aβ-amyloid (1–42) [reference compound] |  |  |  |  |  | MTT reduction, aggressor alone [5]: 58.73 ± 2.76 % ctrl; MTT reduction, aggressor alone ([5]; listed as Aβ42): ~58.7 % ctrl |
| O=C(/C=C/c1cc(O)c(O)c(O)c1)NCCCCCC[P+](c1ccccc1)(c1ccccc1)c1ccccc1 [Compound 1] |  |  | 2940 nM | 7.2 | 410 nM |  |
| O=C([O-])CN(CC(=O)[O-])CC(=O)[O-].[Fe+3] [Iron(III), ferric nitrilotriacetate, reference compound] |  |  |  |  |  | MTT reduction, aggressor alone [3]: 63.06 ± 6.25 % ctrl; MTT reduction, aggressor alone ([3]; listed as iron(III)): ~63.1 % ctrl |
| O=C(CCc1ccc(O)c(O)c1)NCCCCCCCCCC[P+](c1ccccc1)(c1ccccc1)c1ccccc1 [Compound 11] |  |  | 1590 nM | 4.9 | 320 nM | MTT reduction ([3]; compound 10 µM): 82.87 ± 7.87 % ctrl and 82.9 % ctrl; cytotoxicity (SH-SY5Y cells): presented cytotoxicity; MTT reduction ([4]; compound 10 µM): 74.97 ± 6.87 % ctrl; MTT reduction ([5]; compound 10 µM): 66.43 ± 3.45 % ctrl and 66.4 % ctrl |
| O=C(Cc1cc(O)c(O)c(O)c1)NCCCCCC[P+](c1ccccc1)(c1ccccc1)c1ccccc1 [Compound 3] | 8980 nM | 4520 nM |  | 2.0 |  |  |

— PMC7024345 (Molecules, 2020)
